Source: ChEMBL document CHEMBL3880384, “2-Phenylquinoxalines as inhibitors for MPP1” (2006)
Calls of active or inactive are those of the source. The rule behind the calls is not given here.

Target: Kinesin-like protein KIF20B (Homo sapiens) (UniProt Q96Q89)
Assay: Inhibition of MPP1 in human HeLaS3 cells assessed as induction of binucleate phenotype after 18 hrs
Format: cell-based
Conditions: HeLa S3

Sequence of Kinesin-like protein KIF20B (Homo sapiens) (Q96Q89 whole entry): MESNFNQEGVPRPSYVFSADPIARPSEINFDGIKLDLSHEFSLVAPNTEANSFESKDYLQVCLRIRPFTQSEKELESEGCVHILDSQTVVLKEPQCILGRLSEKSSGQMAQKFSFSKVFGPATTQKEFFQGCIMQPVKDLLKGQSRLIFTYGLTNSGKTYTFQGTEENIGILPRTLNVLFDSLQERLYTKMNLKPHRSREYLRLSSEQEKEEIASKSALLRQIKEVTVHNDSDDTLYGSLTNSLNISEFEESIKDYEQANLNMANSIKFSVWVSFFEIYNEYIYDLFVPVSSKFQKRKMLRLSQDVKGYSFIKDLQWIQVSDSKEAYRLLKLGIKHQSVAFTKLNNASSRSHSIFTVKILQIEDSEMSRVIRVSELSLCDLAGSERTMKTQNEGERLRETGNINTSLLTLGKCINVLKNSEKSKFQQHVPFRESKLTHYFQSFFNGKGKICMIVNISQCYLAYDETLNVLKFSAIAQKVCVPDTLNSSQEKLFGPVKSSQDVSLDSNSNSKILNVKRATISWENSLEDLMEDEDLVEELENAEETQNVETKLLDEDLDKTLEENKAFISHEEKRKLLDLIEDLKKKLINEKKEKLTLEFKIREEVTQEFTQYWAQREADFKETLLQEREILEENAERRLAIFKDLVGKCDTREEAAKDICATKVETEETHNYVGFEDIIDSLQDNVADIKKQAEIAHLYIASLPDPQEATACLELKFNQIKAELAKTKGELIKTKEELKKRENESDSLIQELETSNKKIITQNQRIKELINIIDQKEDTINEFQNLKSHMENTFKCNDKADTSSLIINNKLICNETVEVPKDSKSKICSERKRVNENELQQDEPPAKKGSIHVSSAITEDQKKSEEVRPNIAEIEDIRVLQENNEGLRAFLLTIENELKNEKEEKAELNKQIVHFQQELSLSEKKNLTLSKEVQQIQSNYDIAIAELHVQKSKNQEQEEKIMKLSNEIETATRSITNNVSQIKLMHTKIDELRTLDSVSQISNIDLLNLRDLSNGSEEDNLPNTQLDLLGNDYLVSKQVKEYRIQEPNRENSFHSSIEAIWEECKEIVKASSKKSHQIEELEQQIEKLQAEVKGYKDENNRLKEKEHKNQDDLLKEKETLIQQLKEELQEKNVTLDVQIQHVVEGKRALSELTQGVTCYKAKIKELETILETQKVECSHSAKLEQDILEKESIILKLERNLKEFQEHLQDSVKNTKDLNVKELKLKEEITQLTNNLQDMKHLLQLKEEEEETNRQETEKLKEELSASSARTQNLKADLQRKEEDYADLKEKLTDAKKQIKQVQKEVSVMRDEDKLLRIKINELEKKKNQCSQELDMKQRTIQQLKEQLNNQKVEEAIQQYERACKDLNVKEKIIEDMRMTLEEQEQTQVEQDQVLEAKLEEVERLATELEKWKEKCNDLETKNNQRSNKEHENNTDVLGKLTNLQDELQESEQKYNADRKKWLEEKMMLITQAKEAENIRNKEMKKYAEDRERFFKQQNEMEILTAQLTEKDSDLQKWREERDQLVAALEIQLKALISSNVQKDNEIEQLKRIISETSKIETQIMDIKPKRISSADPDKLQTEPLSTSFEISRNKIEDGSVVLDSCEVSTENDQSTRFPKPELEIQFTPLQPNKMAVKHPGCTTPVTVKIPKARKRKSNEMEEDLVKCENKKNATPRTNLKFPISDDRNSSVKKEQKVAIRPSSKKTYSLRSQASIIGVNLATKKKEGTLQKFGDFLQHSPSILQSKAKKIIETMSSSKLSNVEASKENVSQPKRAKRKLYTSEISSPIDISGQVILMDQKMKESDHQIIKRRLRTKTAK

In the case of `FC(F)(F)c1cc(Cl)c2ncc(-c3ccc(Cl)c(Cl)c3)nc2c1`, the inhibition is reported as “Active”.
